Where “and” joins values, the source holds several entries; their conditions need not be identical. Equal values may be shown once. Toxic doses and inconclusive results are not listed.
System: CD2F1 mice, L1210 leukemia ip, survival T/C
Test: NCI In Vivo Anticancer Drug Screen. Data for tumor model L1210 Leukemia (intraperitoneal) in CD2F1 (CDF1) mice
Conditions: higher = longer survival
Summary of the method: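 Tumor-bearing mice (transplanted tumor) were split into treated and vehicle control groups, and the measured endpoint of each treated group was divided by that of its vehicle controls.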

Compound: Cc1c2ccncc2c(C)c2c1[nH]c1ccccc12
- T/C (endpoint: mean survival time, dose: 2.0 mg/kg/injection, schedule: Q01DX009 (ip), vehicle: saline with Tween-80): 113 % of control and 114 % of control and 105 % of control
- T/C (endpoint: mean survival time, dose: 3.13 mg/kg/injection, schedule: Q01DX009 (ip), vehicle: water): 119 % of control
- T/C (endpoint: mean survival time, dose: 4.0 mg/kg/injection, schedule: Q01DX009 (ip), vehicle: saline with Tween-80): 122 % of control and 124 % of control
- T/C (endpoint: mean survival time, dose: 6.25 mg/kg/injection, schedule: Q01DX009 (ip), vehicle: other): 157 % of control
- T/C (endpoint: mean survival time, dose: 6.25 mg/kg/injection, schedule: Q01DX009 (ip), vehicle: water): 151 % of control
- T/C (endpoint: mean survival time, dose: 6.25 mg/kg/injection, schedule: Q01DX009 (oral), vehicle: other): 116 % of control
- T/C (endpoint: mean survival time, dose: 6.25 mg/kg/injection, schedule: Q01DX009 (oral), vehicle: saline): 117 % of control
- T/C (endpoint: mean survival time, dose: 6.25 mg/kg/injection, schedule: Q01DX009 (oral), vehicle: water): 123 % of control
- T/C (endpoint: mean survival time, dose: 6.25 mg/kg/injection, schedule: Q04DX003 (ip), vehicle: other): 112 % of control
- T/C (endpoint: mean survival time, dose: 6.25 mg/kg/injection, schedule: Q04DX003 (ip), vehicle: water): 108 % of control
- T/C (endpoint: mean survival time, dose: 10.0 mg/kg/injection, schedule: Q01DX001 (ip), vehicle: water): 104 % of control
- T/C (endpoint: mean survival time, dose: 10.0 mg/kg/injection, schedule: Q01DX009 (ip), vehicle: saline with Tween-80): 153 % of control
- T/C (endpoint: mean survival time, dose: 10.0 mg/kg/injection, schedule: Q04DX003 (ip), vehicle: saline with Tween-80): 123 % of control
- T/C (endpoint: mean survival time, dose: 12.5 mg/kg/injection, schedule: Q01DX009 (ip), vehicle: other): 198 % of control
- T/C (endpoint: mean survival time, dose: 12.5 mg/kg/injection, schedule: Q01DX009 (ip), vehicle: saline): 180 % of control
- T/C (endpoint: mean survival time, dose: 12.5 mg/kg/injection, schedule: Q01DX009 (ip), vehicle: water): 208 % of control
- T/C (endpoint: mean survival time, dose: 12.5 mg/kg/injection, schedule: Q01DX009 (oral), vehicle: saline): 109 % of control
- T/C (endpoint: mean survival time, dose: 12.5 mg/kg/injection, schedule: Q04DX003 (ip), vehicle: distilled water + Tween-80): 111 % of control
- T/C (endpoint: mean survival time, dose: 12.5 mg/kg/injection, schedule: Q04DX003 (ip), vehicle: saline with Tween-80): 123 % of control
- T/C (endpoint: mean survival time, dose: 12.5 mg/kg/injection, schedule: Q04DX003 (ip), vehicle: water): 122 % of control and 124 % of control
- T/C (endpoint: mean survival time, dose: 12.5 mg/kg/injection, schedule: Q04DX003 (oral), vehicle: other): 103 % of control and 108 % of control
- T/C (endpoint: mean survival time, dose: 12.5 mg/kg/injection, schedule: Q04DX003 (oral), vehicle: saline): 113 % of control and 107 % of control
- T/C (endpoint: mean survival time, dose: 12.5 mg/kg/injection, schedule: Q04DX003 (oral), vehicle: water): 114 % of control and 109 % of control
- T/C (endpoint: mean survival time, dose: 20.0 mg/kg/injection, schedule: Q01DX001 (ip), vehicle: water): 104 % of control
- T/C (endpoint: mean survival time, dose: 20.0 mg/kg/injection, schedule: Q01DX009 (ip), vehicle: saline with Tween-80): 188 % of control and 205 % of control
- T/C (endpoint: mean survival time, dose: 20.0 mg/kg/injection, schedule: Q04DX003 (ip), vehicle: saline with Tween-80): 157 % of control
- T/C (endpoint: mean survival time, dose: 25.0 mg/kg/injection, schedule: Q01DX009 (ip), vehicle: other): 118 % of control
- T/C (endpoint: mean survival time, dose: 25.0 mg/kg/injection, schedule: Q01DX009 (ip), vehicle: saline): 218 % of control
- T/C (endpoint: mean survival time, dose: 25.0 mg/kg/injection, schedule: Q01DX009 (ip), vehicle: water): 100 % of control
- T/C (endpoint: mean survival time, dose: 25.0 mg/kg/injection, schedule: Q01DX009 (oral), vehicle: other): 163 % of control
- T/C (endpoint: mean survival time, dose: 25.0 mg/kg/injection, schedule: Q01DX009 (oral), vehicle: water): 159 % of control
- T/C (endpoint: mean survival time, dose: 25.0 mg/kg/injection, schedule: Q04DX003 (ip), vehicle: distilled water + Tween-80): 121 % of control
- T/C (endpoint: mean survival time, dose: 25.0 mg/kg/injection, schedule: Q04DX003 (ip), vehicle: saline): 156 % of control
- T/C (endpoint: mean survival time, dose: 25.0 mg/kg/injection, schedule: Q04DX003 (ip), vehicle: water): 157 % of control and 190 % of control
- T/C (endpoint: mean survival time, dose: 25.0 mg/kg/injection, schedule: Q04DX003 (oral), vehicle: other): 116 % of control
- T/C (endpoint: mean survival time, dose: 25.0 mg/kg/injection, schedule: Q04DX003 (oral), vehicle: saline): 116 % of control and 118 % of control
- T/C (endpoint: mean survival time, dose: 25.0 mg/kg/injection, schedule: Q04DX003 (oral), vehicle: water): 116 % of control
- T/C (endpoint: mean survival time, dose: 32.0 mg/kg/injection, schedule: Q01DX009 (ip), vehicle: saline with Tween-80): 182 % of control
- T/C (endpoint: mean survival time, dose: 40.0 mg/kg/injection, schedule: Q01DX009 (ip), vehicle: saline with Tween-80): 153 % of control
- T/C (endpoint: mean survival time, dose: 40.0 mg/kg/injection, schedule: Q04DX003 (ip), vehicle: saline with Tween-80): 182 % of control and 202 % of control
- T/C (endpoint: mean survival time, dose: 50.0 mg/kg/injection, schedule: Q01DX009 (ip), vehicle: other): 92 % of control
- T/C (endpoint: mean survival time, dose: 50.0 mg/kg/injection, schedule: Q01DX009 (ip), vehicle: saline): 185 % of control
- T/C (endpoint: mean survival time, dose: 50.0 mg/kg/injection, schedule: Q01DX009 (ip), vehicle: water): 87 % of control
- T/C (endpoint: mean survival time, dose: 50.0 mg/kg/injection, schedule: Q01DX009 (oral), vehicle: saline): 152 % of control
- T/C (endpoint: mean survival time, dose: 50.0 mg/kg/injection, schedule: Q01DX009 (oral), vehicle: water): 107 % of control
- T/C (endpoint: mean survival time, dose: 50.0 mg/kg/injection, schedule: Q04DX003 (ip), vehicle: distilled water + Tween-80): 156 % of control
- T/C (endpoint: mean survival time, dose: 50.0 mg/kg/injection, schedule: Q04DX003 (ip), vehicle: saline with Tween-80): 119 % of control
- T/C (endpoint: mean survival time, dose: 50.0 mg/kg/injection, schedule: Q04DX003 (ip), vehicle: saline): 177 % of control
- T/C (endpoint: mean survival time, dose: 50.0 mg/kg/injection, schedule: Q04DX003 (ip), vehicle: water): 186 % of control
- T/C (endpoint: mean survival time, dose: 50.0 mg/kg/injection, schedule: Q04DX003 (oral), vehicle: other): 153 % of control
- T/C (endpoint: mean survival time, dose: 50.0 mg/kg/injection, schedule: Q04DX003 (oral), vehicle: saline): 167 % of control
- T/C (endpoint: mean survival time, dose: 50.0 mg/kg/injection, schedule: Q04DX003 (oral), vehicle: water): 152 % of control and 158 % of control
- T/C (endpoint: mean survival time, dose: 64.0 mg/kg/injection, schedule: Q01DX009 (ip), vehicle: saline with Tween-80): 120 % of control and 102 % of control and 107 % of control
- T/C (endpoint: mean survival time, dose: 80.0 mg/kg/injection, schedule: Q01DX001 (ip), vehicle: water): 162 % of control
- T/C (endpoint: mean survival time, dose: 100.0 mg/kg/injection, schedule: Q01DX001 (ip), vehicle: other): 205 % of control
- T/C (endpoint: mean survival time, dose: 100.0 mg/kg/injection, schedule: Q01DX009 (oral), vehicle: saline): 94 % of control
- T/C (endpoint: mean survival time, dose: 100.0 mg/kg/injection, schedule: Q04DX003 (ip), vehicle: distilled water + Tween-80): 163 % of control and 177 % of control
- T/C (endpoint: mean survival time, dose: 100.0 mg/kg/injection, schedule: Q04DX003 (ip), vehicle: saline): 216 % of control
- T/C (endpoint: mean survival time, dose: 100.0 mg/kg/injection, schedule: Q04DX003 (oral), vehicle: saline): 163 % of control and 179 % of control
- T/C (endpoint: mean survival time, dose: 200.0 mg/kg/injection, schedule: Q01DX001 (ip), vehicle: other): 224 % of control
- T/C (endpoint: mean survival time, dose: 200.0 mg/kg/injection, schedule: Q04DX003 (ip), vehicle: distilled water + Tween-80): 113 % of control and 104 % of control
- T/C (endpoint: mean survival time, dose: 200.0 mg/kg/injection, schedule: Q04DX003 (oral), vehicle: other): 113 % of control
- T/C (endpoint: mean survival time, dose: 200.0 mg/kg/injection, schedule: Q04DX003 (oral), vehicle: saline): 122 % of control and 102 % of control
- T/C (endpoint: mean survival time, dose: 400.0 mg/kg/injection, schedule: Q01DX001 (ip), vehicle: other): 186 % of control
- T/C (endpoint: mean survival time, dose: 400.0 mg/kg/injection, schedule: Q04DX003 (oral), vehicle: other): 96 % of control
- T/C (endpoint: median survival time, dose: 10.0 mg/kg/injection, schedule: Q01DX001 (ip), vehicle: water): 106 % of control
- T/C (endpoint: median survival time, dose: 20.0 mg/kg/injection, schedule: Q01DX001 (ip), vehicle: water): 117 % of control
- T/C (endpoint: median survival time, dose: 80.0 mg/kg/injection, schedule: Q01DX001 (ip), vehicle: water): 153 % of control

Compound: CSc1nc(SC)c2c3c(N)ncnc3n(C3OC(CO)C(O)C3O)c2n1 (stereo not drawn)
- T/C (endpoint: mean survival time, dose: 12.5 mg/kg/injection, schedule: Q01DX005 (ip), vehicle: other): 107 % of control
- T/C (endpoint: mean survival time, dose: 25.0 mg/kg/injection, schedule: Q01DX005 (ip), vehicle: other): 121 % of control
- T/C (endpoint: mean survival time, dose: 100.0 mg/kg/injection, schedule: Q01DX005 (ip), vehicle: other): 119 % of control
- T/C (endpoint: mean survival time, dose: 250.0 mg/kg/injection, schedule: Q01DX005 (ip), vehicle: other): 121 % of control

Compound: CCCCNC(=O)Nc1ccc(C(=O)OCCCC)cc1
- T/C (endpoint: mean survival time, dose: 100.0 mg/kg/injection, schedule: Q01DX009 (ip), vehicle: saline with Tween-80): 87 % of control
- T/C (endpoint: mean survival time, dose: 100.0 mg/kg/injection, schedule: Q04DX003 (ip), vehicle: saline with Tween-80): 101 % of control
- T/C (endpoint: mean survival time, dose: 200.0 mg/kg/injection, schedule: Q01DX009 (ip), vehicle: saline with Tween-80): 92 % of control
- T/C (endpoint: mean survival time, dose: 200.0 mg/kg/injection, schedule: Q04DX003 (ip), vehicle: saline with Tween-80): 101 % of control
- T/C (endpoint: mean survival time, dose: 400.0 mg/kg/injection, schedule: Q01DX009 (ip), vehicle: saline with Tween-80): 92 % of control
- T/C (endpoint: mean survival time, dose: 400.0 mg/kg/injection, schedule: Q04DX003 (ip), vehicle: saline with Tween-80): 100 % of control

Source: PubChem BioAssay AID256 (DTP/NCI, 2004)
